Values of other authors, collected in patent US20200386739A1, “TREATMENT OF METAHNOGENIC BACTERIA AS A THERAPY FOR CHRONIC LUNG DISEASE” (priority 2019, published 2020).
Positions of bridges follow the written chain, without caps; N, C: chain ends. Non-standard residues stand in square brackets, D forms with d. Residues, ends and D or L forms follow the SMILES beside them. *: point of attachment. Ileψ(thiazoline)Cys = CC[C@H](C)[C@H](N)C1=N[C@H](C(=O)*)CS1; dOrn = NCCC[C@@H](N)C(=O)O

Tests used:
[1] = system: methane producing patients with IBS-C and chronic constipation
[2] = system: guinea pig muscle strips from the ileum
small intestine of dogs = details: in vivo infusion of methane into the small intestine of dogs; scintigraphy
guinea pig ileum = guinea pig ileum exposed to methane
Methanogens = details: cell wall lacks peptidoglycan

Q: Which “colonic transit time and constipation symptoms” value [1] does the source give for `CO[C@H]1/C=C/O[C@@]2(C)Oc3c(C)c(O)c4c(O)c(c5c(nc6cc(C)ccn65)c4c3C2=O)NC(=O)/C(C)=C\C=C\[C@H](C)[C@H](O)[C@@H](C)[C@@H](O)[C@@H](C)[C@H](OC(C)=O)[C@@H]1C` [rifaximin] here?
A: improvement

Q: What about the methane production [1] of the same compound?
A: reduced

Q: With `CN1[C@@H]2CC[C@H]1C[C@@H](OC(=O)C(CO)c1ccccc1)C2` (some centres unmarked) [atropine] as the compound, how does the “effect on the methane-induced increase of contractile amplitude” value [2] read?
A: reduced

Q: Which results are given for `C` [methane]?
A: slowing of small intestinal transit time (small intestine of dogs): 59%; amplitude of contractions (guinea pig ileum): increased; area under the curve (AUC) of intraluminal pressure (guinea pig ileum): increased; peristaltic velocity (guinea pig ileum): significantly decreased; contractile amplitude ([2]; methane infusion, ileum muscle strips): increased

Q: For `O=C(N[C@H](CO)[C@H](O)c1ccc([N+](=O)[O-])cc1)C(Cl)Cl` [chloramphenicol], which susceptibility of methanogens (Methanogens) is on record?
A: susceptible

Q: For `NC1=N[C@H](O)[C@H]2[C@H]3O[C@]4(O)O[C@@H]([C@@H](O)[C@@]2(N1)[C@@H]4O)[C@]3(O)CO` [tetrodotoxin], which “effect on the methane-induced increase of contractile amplitude” value [2] is on record?
A: blocked

Q: Which susceptibility of methanogens (Methanogens) does the source give for `CC[C@H](C)[C@H](N)C1=N[C@H](C(=O)N[C@@H](CC(C)C)C(=O)N[C@H](CCC(=O)O)C(=O)N[C@H](C(=O)N[C@H]2CCCCNC(=O)[C@H](CC(N)=O)NC(=O)[C@@H](CC(=O)O)NC(=O)[C@H](Cc3cnc[nH]3)NC(=O)[C@@H](Cc3ccccc3)NC(=O)[C@H]([C@@H](C)CC)NC(=O)[C@@H](CCCN)NC2=O)[C@@H](C)CC)CS1` [bacitracin] ({Ileψ(thiazoline)Cys}-L[dE]IK[dOrn]I[dF]H[dD]N; lactam 4-C) here?
A: susceptible
